Experimental data published in ChEMBL document CHEMBL5465560, “Selectivity Literature for EUbOPEN Chemogenomic Library” (2024).

How the values were obtained:
[1] = molecular target: T1, Dual serine/threonine and tyrosine protein kinase (Homo sapiens) (UniProt Q6XUX3); assay: Selectivity interaction (KinomeScan (DiscoverX)) EUB0001049a DSTYK; settings: at 1 µM
T1 sequence (whole entry): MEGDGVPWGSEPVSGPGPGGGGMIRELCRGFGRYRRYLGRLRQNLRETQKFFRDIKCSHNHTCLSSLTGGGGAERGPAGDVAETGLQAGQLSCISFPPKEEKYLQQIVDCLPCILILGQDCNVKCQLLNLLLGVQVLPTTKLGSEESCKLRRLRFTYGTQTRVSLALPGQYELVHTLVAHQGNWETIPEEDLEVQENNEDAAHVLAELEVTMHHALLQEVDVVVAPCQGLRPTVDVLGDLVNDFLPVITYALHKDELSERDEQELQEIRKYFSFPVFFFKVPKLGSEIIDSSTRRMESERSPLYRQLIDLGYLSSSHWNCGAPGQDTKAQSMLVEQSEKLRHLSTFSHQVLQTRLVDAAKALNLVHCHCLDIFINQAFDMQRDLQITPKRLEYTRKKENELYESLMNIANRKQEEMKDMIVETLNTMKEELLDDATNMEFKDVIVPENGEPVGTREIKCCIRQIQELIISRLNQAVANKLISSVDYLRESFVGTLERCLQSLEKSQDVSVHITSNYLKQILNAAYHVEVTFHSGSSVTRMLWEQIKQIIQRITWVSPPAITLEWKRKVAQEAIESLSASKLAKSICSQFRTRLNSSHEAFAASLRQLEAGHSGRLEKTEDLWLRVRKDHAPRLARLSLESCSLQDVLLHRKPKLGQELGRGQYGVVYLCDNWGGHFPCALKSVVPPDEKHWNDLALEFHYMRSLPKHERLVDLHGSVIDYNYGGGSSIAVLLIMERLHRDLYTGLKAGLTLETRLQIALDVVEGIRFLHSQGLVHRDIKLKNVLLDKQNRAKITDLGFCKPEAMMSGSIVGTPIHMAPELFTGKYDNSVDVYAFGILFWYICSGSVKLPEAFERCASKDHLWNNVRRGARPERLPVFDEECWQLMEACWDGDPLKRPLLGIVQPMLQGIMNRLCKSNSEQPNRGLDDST

[2] = molecular target: Vascular endothelial growth factor receptor 3 (Homo sapiens, UniProt P35916)
[3] = molecular target: Receptor-interacting serine/threonine-protein kinase 3 (Homo sapiens) (UniProt Q9Y572); assay: Selectivity interaction (ActivX KiNativ screen (ex vivo kinase selectivity in human PBMCs)) EUB0001619a RIPK3; type: cell-based; settings: PBMC, at 1 µM
[4] = molecular target: T2, Ephrin type-B receptor 2 (Homo sapiens) (UniProt P29323); assay: Selectivity interaction (KinomeScan (DiscoverX)) EUB0000618a EPHB2; settings: at 10 µM
T2 sequence (whole entry): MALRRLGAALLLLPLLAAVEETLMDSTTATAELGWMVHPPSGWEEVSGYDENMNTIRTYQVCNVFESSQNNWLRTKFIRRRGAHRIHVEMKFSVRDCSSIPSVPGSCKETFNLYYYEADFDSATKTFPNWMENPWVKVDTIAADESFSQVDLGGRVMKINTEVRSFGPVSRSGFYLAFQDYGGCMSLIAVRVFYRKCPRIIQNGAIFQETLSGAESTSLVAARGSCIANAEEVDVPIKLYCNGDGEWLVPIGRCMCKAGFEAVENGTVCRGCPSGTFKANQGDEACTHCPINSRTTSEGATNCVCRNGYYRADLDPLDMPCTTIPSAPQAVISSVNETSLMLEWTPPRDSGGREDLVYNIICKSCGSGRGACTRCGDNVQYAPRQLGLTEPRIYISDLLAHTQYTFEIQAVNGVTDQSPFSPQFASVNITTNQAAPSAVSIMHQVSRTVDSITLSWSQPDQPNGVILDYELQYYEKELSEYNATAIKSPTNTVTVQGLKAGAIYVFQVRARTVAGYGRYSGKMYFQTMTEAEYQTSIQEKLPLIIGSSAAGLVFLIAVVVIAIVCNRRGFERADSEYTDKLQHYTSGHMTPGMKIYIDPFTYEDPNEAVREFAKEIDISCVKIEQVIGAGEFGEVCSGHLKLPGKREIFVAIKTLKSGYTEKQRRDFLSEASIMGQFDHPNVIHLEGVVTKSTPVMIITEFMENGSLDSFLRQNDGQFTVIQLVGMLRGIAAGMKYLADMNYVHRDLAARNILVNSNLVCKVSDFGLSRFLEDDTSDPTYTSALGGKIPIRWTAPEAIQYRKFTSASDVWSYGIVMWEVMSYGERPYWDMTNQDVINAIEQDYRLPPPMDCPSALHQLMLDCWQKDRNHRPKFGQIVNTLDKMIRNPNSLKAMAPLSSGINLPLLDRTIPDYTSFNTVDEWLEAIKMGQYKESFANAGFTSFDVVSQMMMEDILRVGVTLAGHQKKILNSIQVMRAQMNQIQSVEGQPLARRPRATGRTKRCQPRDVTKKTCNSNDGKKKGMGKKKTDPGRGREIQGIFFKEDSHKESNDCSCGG

[5] = molecular target: Calcium/calmodulin-dependent protein kinase type II subunit delta (Homo sapiens) (UniProt Q13557); assay: Selectivity interaction (Kinase panel (Invitrogen)) EUB0000639a CAMK2D; settings: at 200 nM
[6] = molecular target: MAP/microtubule affinity-regulating kinase 3 (Homo sapiens) (UniProt P27448); assay: Selectivity interaction (ActivX KiNativ screen (kinase selectivity in THP-1 cell lysates)) EUB0000639a MARK3; type: subcellular; settings: lysate, at 0.01 µM
[7] = molecular target: Tyrosine-protein kinase HCK (Homo sapiens) (UniProt P08631); assay: Selectivity interaction (ActivX KiNativ screen (kinase selectivity in THP-1 cell lysates)) EUB0000639a HCK; type: subcellular; settings: lysate, at 0.2 µM
Sequence of Tyrosine-protein kinase HCK (Homo sapiens) (P08631 2-526 limits assumed): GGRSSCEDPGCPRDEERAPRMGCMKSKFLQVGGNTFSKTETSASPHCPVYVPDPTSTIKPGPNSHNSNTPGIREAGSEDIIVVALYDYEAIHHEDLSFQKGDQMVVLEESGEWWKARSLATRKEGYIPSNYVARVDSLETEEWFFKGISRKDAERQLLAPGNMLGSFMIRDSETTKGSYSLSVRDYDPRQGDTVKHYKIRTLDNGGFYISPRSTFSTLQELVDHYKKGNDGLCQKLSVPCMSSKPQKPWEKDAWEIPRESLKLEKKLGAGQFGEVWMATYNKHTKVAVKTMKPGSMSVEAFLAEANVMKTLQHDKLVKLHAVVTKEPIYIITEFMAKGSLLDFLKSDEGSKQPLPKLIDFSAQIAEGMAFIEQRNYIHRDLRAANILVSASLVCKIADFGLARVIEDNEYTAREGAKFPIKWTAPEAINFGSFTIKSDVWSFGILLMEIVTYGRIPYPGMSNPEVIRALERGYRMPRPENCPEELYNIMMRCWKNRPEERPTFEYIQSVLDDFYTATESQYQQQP

Sequence of Receptor-interacting serine/threonine-protein kinase 3 (Homo sapiens) (Q9Y572 whole entry, looked up): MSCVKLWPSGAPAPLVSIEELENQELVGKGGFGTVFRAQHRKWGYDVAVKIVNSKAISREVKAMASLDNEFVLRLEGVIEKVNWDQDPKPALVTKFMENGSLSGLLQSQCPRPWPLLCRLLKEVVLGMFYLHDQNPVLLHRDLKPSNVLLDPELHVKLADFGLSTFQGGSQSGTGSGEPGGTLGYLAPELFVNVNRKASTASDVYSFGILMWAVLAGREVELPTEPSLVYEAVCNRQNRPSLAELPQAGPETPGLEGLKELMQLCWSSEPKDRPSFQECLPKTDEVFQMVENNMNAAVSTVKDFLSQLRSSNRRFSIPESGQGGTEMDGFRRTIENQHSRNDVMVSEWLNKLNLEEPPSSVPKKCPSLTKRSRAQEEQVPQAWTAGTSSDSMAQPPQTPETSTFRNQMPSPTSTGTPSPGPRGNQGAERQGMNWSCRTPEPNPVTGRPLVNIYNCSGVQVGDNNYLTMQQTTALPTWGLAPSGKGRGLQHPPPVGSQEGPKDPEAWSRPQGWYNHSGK
Sequence of Calcium/calmodulin-dependent protein kinase type II subunit delta (Homo sapiens) (Q13557 whole entry): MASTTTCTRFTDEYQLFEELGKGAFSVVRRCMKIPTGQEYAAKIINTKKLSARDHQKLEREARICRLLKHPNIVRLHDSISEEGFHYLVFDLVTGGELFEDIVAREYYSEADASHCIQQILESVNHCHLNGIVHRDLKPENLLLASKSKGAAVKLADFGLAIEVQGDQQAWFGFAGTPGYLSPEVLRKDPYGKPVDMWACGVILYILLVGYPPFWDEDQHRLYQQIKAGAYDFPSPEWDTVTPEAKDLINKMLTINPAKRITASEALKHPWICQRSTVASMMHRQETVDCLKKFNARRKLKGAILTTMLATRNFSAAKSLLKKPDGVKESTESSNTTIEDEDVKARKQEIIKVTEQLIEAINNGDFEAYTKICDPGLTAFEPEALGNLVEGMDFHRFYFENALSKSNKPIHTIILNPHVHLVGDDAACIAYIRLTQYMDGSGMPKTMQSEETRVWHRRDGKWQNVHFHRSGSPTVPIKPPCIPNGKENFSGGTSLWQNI
Sequence of Vascular endothelial growth factor receptor 3 (P35916 whole entry): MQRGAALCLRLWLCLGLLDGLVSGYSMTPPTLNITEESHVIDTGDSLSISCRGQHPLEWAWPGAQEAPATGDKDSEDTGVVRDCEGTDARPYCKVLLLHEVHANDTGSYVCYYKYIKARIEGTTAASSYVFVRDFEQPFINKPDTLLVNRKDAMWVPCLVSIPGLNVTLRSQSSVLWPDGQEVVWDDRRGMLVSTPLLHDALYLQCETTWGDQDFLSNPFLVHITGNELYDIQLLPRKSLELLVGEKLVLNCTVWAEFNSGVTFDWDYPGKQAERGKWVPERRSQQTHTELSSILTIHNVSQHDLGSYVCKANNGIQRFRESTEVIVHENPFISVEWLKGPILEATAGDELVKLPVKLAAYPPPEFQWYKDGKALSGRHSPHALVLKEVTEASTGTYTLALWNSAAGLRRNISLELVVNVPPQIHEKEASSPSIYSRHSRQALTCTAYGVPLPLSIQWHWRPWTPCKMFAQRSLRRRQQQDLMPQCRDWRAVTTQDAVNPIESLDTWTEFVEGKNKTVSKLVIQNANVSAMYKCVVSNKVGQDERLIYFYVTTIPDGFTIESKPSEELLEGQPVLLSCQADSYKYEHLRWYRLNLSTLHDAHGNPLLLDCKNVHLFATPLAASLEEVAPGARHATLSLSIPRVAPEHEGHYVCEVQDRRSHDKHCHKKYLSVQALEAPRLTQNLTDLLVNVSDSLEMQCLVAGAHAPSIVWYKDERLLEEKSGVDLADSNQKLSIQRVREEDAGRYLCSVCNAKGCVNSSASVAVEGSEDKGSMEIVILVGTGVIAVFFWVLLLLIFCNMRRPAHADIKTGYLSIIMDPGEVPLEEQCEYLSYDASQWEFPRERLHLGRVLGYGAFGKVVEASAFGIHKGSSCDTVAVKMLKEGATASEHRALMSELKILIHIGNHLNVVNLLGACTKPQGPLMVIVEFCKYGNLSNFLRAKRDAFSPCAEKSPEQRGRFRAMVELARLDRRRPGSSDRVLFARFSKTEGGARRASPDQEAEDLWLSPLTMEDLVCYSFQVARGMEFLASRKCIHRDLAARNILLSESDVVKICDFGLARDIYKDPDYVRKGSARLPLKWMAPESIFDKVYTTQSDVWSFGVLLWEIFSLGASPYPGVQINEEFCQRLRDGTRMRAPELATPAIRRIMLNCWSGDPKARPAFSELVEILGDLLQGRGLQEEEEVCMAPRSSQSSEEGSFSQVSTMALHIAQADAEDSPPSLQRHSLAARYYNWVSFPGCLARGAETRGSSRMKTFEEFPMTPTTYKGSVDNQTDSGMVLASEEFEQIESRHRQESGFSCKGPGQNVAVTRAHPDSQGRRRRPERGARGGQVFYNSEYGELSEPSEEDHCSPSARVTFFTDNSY
Sequence of MAP/microtubule affinity-regulating kinase 3 (Homo sapiens) (P27448 whole entry, looked up): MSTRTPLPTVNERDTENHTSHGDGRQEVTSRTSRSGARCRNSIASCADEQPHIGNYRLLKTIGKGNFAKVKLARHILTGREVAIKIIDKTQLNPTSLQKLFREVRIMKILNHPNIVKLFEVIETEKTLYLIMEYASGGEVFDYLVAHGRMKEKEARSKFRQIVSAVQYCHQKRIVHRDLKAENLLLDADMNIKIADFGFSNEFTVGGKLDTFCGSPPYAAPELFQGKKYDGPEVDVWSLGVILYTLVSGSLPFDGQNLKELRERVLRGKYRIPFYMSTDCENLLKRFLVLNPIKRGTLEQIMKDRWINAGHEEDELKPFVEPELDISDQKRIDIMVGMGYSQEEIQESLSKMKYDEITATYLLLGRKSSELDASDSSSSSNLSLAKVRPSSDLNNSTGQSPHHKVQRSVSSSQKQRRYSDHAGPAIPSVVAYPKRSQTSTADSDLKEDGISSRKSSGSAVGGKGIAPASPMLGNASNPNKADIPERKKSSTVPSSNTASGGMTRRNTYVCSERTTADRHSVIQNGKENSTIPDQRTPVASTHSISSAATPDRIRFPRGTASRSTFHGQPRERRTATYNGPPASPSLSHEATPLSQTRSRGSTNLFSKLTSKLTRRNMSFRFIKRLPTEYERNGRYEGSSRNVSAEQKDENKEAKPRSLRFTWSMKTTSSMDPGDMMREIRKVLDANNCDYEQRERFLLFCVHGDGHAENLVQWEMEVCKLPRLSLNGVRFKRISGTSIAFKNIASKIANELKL

`COc1cc(Nc2nc(C)cc(-c3cnn4nc(OC)ccc34)n2)cc(C(F)(F)F)c1` showed a % of control [1] of 79%.
With `CCc1cccc(CC)c1NC(=O)c1nn(C)c2c1CCc1cnc(Nc3ccc(C(=O)NC4CCN(C)CC4)cc3OC(F)(F)F)nc1-2` the IC50 [2] was > 10 µM.
Work on `N#Cc1cccc(-c2c[nH]c3ncnc(N4CCOCC4)c23)c1` yielded a % of inhibition [3] of 8%.
For `O[C@H]1CC[C@H](Nc2ncc3nc(Nc4c(F)cc(F)cc4F)n([C@H]4CCOC4)c3n2)CC1`, the % of control [4] was 72%.
Molecule `CC[C@@H]1[C@H](F)C(=O)N[C@@H]1COc1nccc2cc(C(N)=O)c(OC)cc12` [ZIMLOVISERTIB] has a % of inhibition [5] of 24.9%, a % of inhibition [6] of 2.3% and a % of inhibition [7] of -32.6%.
